Data as given in patent US12213985B2, “Oral cannabinoid formulations” (Jazz Pharmaceuticals Research UK Limited, priority 2016, dated 2025).
Where a SMILES comes first, the peptide text is derived from it.

Experiments:
[1] = derived from FDA website; cited from earlier work
[2] = Lowest ethanol concentration to solubilise Advantame, storage and observation for precipitation (ET03/015); format: physicochemical; conditions: Advantame 0.0025% w/v in sesame oil formulation
Procedure: An experiment (ET03/015) was carried out to determine the lowest ethanol concentration required to solubilise Advantame. Table 3 details the batches made with various ethanol concentrations ranging from 0.5% to 3.0% v/v.
These batches were stored at 25° C./60% RH and 40° C./75% RH for up to 4 weeks and observed for any signs of precipitation. There was no precipitation observed over the period assessed. Therefore it was concluded that Advantame can be used as a sweetener and can be solubilised at ethanol concentration of at least as low as 0.5% v/v. i.e. the concentration of ethanol required in the formulation can be reduced by a factor of 20 compared to a sucralose containing formulation.

[3] = Physical stability of Neotame formulations, open bottles standing 2 weeks; format: physicochemical
Procedure: The 25 mg/ml and 100 mg/ml batches were tested for physical stability by opening the bottles and allowing them to stand for 2 weeks to let the ethanol evaporate. This was done as a worst case in-use scenario where the bottle is repeatedly opened and closed multiple times during use. The batches were monitored for any signs of precipitation and the ethanol content measured.

[4] = Miscibility of alternative solvents with sesame oil; format: physicochemical; conditions: range of concentrations (0.5-10%) tested

| Compound | Acceptable Daily Intake [1] [mg/kg/day] | other results |
| --- | --- | --- |
| COC(=O)[C@H](Cc1ccccc1)NC(=O)[C@H](CC(=O)O)NCCCc1ccc(OC)c(O)c1 [Advantame, N—[N-3-(3-hydroxy-4-methoxyphenyl)propyl-α-L-aspartyl]-L-phenylalanine 1-methyl ester] | 32.8 | ethanol concentration at which the sweetener can be solubilised [2]: ≤ 0.5 % v/v |
| COC(=O)[C@H](Cc1ccccc1)NC(=O)[C@@H](N)CC(=O)O [Aspartame] (H-Asp-Phe-OMe) | 50 | – |
| COC(=O)[C@H](Cc1ccccc1)NC(=O)[C@H](CC(=O)O)NCCC(C)(C)C [Neotame, N—[N-(3,3-dimethylbutyl)-L-α-aspartyl]-L-phenylalanine 1-methyl ester] | 0.3 | concentration at which Neotame can be physically solubilised ([3]; in ethanol): up to 0.01 % w/v; solubility in ethanol ([3]; room temperature): freely soluble |
| O.O.O=C1NS(=O)(=O)c2ccccc21 [Saccharin Dihydrate] | 15 | – |
| O=C1NS(=O)(=O)c2ccccc21 [Saccharin] | 15 | – |
| OC[C@H]1O[C@H](O[C@]2(CCl)O[C@H](CCl)[C@@H](O)[C@@H]2O)[C@H](O)[C@@H](O)[C@H]1Cl [Sucralose, reference compound] | 5 | – |
| OCC(O)CO [glycerin] | – | miscibility with sesame oil [4]: not satisfactory |
| CC(O)CO (centres unmarked) [propylene glycol] | – | miscibility with sesame oil [4]: not satisfactory |
